# Laboratory results from ChEMBL document CHEMBL5385878, “Synthesis and structure-activity optimization of 7-azaindoles containing aza-β-amino acids targeting the influenza PB2 subunit” (Eur J Med Chem, 2023).
# Active and inactive are the calls of the source. No cut-off for these calls is given here.
# Key:
# [1] = target: Polymerase basic protein 2 (Influenza A virus (strain A/Puerto Rico/8/1934 H1N1)) (UniProt P03428); assay: Inhibition of influenza A virus polymerase PB2 expressed in HEK293T cells cotransfected with PGK-renilla-luciferase assessed as remaining activity at 10 uM pretreated with cells for 2 hrs followed by enzyme addition and measured after 24 hrs by dual-Glo luciferase assay relative to control; format: cell-based; settings: time 26.0 hrs
# Chain of Polymerase basic protein 2 (Influenza A virus (strain A/Puerto Rico/8/1934 H1N1)) (P03428 whole entry, looked up, the tested form may be a part): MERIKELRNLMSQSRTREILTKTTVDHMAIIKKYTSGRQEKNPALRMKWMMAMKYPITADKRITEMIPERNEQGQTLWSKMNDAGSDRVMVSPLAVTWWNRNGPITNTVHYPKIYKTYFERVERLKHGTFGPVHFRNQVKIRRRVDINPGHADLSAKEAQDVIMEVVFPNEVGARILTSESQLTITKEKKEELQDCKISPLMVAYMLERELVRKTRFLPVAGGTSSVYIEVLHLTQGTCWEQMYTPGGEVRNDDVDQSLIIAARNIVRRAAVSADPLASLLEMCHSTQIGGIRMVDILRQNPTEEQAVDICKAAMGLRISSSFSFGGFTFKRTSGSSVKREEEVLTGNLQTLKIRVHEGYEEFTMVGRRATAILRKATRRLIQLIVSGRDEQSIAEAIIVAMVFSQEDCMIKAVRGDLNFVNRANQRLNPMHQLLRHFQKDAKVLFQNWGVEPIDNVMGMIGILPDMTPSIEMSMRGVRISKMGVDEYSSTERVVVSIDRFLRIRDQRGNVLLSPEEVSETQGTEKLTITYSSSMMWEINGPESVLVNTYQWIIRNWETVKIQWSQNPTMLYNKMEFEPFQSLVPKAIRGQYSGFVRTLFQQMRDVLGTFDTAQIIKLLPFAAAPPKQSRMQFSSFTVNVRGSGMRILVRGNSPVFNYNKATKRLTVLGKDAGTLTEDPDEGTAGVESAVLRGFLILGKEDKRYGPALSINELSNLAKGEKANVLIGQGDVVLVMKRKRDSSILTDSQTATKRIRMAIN
# [2] = target: Polymerase basic protein 2 (Influenza A virus (strain A/Puerto Rico/8/1934 H1N1)) (UniProt P03428); assay: Inhibition of influenza A virus polymerase PB2 expressed in HEK293T cells cotransfected with PGK-renilla-luciferase at 10 uM pretreated with cells for 2 hrs followed by enzyme addition and measured after 24 hrs by dual-Glo luciferase assay relative to control; format: cell-based; settings: time 26.0 hrs
# [3] = Cytotoxicity against human A549 cells assessed as reduction in cell viability incubated for 96 hrs by CCK-8 method; format: toxicity, cell-based
# [4] = Selectivity index, ratio of CC50 for human A549 cells to EC50 for antiviral activity against Influenza A virus A/WSN/33(H1N1) infected in A549 cells; format: toxicity, cell-based; settings: read-out: Ratio CC50/EC50
# [5] = target: T1, Polymerase basic protein 2 (Influenza A virus (strain A/Puerto Rico/8/1934 H1N1), UniProt P03428); assay: Inhibition of influenza A virus polymerase PB2 expressed in HEK293T cells cotransfected with PGK-renilla-luciferase pretreated with cells for 2 hrs followed by enzyme addition and measured after 24 hrs by dual-Glo luciferase assay; format: cell-based
# T1 sequence (P03428 whole entry, the tested form may be a part): as the sequence (P03428 whole entry, looked up, the tested form may be a part) above
# [6] = target: T1, Polymerase basic protein 2; assay: Binding affinity to recombinant Influenza A virus polymerase PB2 cap-binding domain (318 to 413 residues) assessed as dissociation constant by ITC method
# Influenza A virus [7] = assay: Antiviral activity against Influenza A virus A/WSN/33(H1N1) infected in A549 cells assessed as reduction in cell cytopathic effect incubated with cells for 2 hrs prior to viral infection followed by MDCK cells addition at 24 hrs pi and measured after 72 hrs by Reed-Muench method; format: functional, organism-based
# Influenza A virus [8] = assay: Antiviral activity against Influenza A virus A/WSN/33(H1N1) infected in BALB/c mouse assessed as log reduction in lung viral titer at 12 mg/kg, po BID administered starting from 2 hrs before infection and measured on day 3 (reference value: 6.916 +/- 0.4736); format: functional; settings: time 3 day
# Influenza A virus [9] = assay: Antiviral activity against Influenza A virus A/WSN/33(H1N1) infected in BALB/c mouse assessed as log10 reduction in viral titer at 12 mg/kg, po BID administered starting from 2 hrs before infection and measured on day 3; format: functional; settings: time 3 day
# Influenza A virus [10] = assay: Antiviral activity against Influenza A virus A/WSN/33(H1N1) infected in BALB/c mouse assessed as recovery of ALT level at 12 mg/kg, po BID administered starting from 2 hrs before infection and measured on day 3; format: functional, organism-based; settings: time 3.0 day
# [11] = target: Polymerase basic protein 2 (Influenza A virus (strain A/Puerto Rico/8/1934 H1N1)) (UniProt P03428); assay: Potency index, ratio of m7GTP Kd to test compound Kd for recombinant Influenza A virus polymerase PB2 cap-binding domain (318 to 413 residues)
# [12] = Toxicity in BALB/c mouse assessed as change in AST level at 40 mg/kg, po administered for 3 days; format: organism-based; settings: in vivo, 72 h, time 3 day
# [13] = Toxicity in BALB/c mouse infected with Influenza A virus A/WSN/33(H1N1) assessed as body weight loss at 12.5 to 25 mg/kg, po BID administered starting from 2 days post-infection to 9 days and measured for 15 days; format: organism-based; settings: in vivo, 360 h, dose 12.5-25 mg/kg, time 15 day
# [14] = target: Voltage-gated inwardly rectifying potassium channel KCNH2 (Homo sapiens, UniProt Q12809); assay: Inhibition of hERG by manual patch clamp method; format: toxicity
# Chain of Voltage-gated inwardly rectifying potassium channel KCNH2 (Q12809 whole entry): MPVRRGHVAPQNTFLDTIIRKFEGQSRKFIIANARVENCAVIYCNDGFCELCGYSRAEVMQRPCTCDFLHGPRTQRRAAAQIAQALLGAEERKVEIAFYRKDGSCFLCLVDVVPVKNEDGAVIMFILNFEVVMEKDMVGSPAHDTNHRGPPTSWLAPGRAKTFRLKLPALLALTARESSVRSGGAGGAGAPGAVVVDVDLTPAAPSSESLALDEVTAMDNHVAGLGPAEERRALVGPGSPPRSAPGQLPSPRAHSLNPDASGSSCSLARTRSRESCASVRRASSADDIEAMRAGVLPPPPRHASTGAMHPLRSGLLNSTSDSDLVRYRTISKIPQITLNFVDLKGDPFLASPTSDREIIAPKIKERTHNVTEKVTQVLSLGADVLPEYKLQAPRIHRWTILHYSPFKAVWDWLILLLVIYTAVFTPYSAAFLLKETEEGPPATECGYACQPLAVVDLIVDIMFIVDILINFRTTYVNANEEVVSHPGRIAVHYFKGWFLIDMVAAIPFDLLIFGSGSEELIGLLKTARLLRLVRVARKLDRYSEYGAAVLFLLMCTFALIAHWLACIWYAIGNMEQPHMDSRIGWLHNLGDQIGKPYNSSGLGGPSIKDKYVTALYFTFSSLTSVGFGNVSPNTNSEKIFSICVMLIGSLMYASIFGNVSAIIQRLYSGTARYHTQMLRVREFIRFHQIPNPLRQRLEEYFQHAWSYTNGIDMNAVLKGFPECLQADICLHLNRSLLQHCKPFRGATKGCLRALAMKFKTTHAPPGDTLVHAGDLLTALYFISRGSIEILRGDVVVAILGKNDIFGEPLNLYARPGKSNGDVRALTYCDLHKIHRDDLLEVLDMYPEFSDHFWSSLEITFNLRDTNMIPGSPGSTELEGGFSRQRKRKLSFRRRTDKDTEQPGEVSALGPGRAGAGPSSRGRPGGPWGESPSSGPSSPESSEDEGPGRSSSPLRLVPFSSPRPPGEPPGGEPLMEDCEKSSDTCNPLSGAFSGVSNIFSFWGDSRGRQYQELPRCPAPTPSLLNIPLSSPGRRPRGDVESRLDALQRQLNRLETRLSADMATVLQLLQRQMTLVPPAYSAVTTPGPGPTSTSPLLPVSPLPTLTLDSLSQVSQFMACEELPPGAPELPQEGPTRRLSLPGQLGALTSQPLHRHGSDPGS
# [15] = Toxicity in BALB/c mouse assessed as poisoning symptom at 40 mg/kg, po administered once daily for 3 days; format: organism-based; settings: in vivo, 72 h, time 3 day
# [16] = Toxicity in BALB/c mouse infected with Influenza A virus A/WSN/33(H1N1) assessed as body weight loss at 12 mg/kg, po BID administered starting from 2 hrs before infection and measured on day 3; format: organism-based; settings: in vivo, 72 h, time 3 day
# Influenza A virus [17] = assay: Antiviral activity against Influenza A virus A/WSN/33(H1N1) infected in BALB/c mouse assessed as recovery of AST level at 12 mg/kg, po BID administered starting from 2 hrs before infection and measured on day 3; format: functional, organism-based; settings: time 3.0 day
# Influenza A virus [18] = assay: Antiviral activity against Influenza A virus A/WSN/33(H1N1) infected in BALB/c mouse assessed as increase in survival ratio at 12.5 to 25 mg/kg, po BID administered starting from 2 days post-infection to 9 days and measured for 15 days; format: functional; settings: dose 12.5-25 mg/kg, time 15 day
# Influenza A virus [19] = assay: Antiviral activity against wild type Influenza A/WSN/33 at 0.3 uM; format: functional, organism-based
# [20] = Toxicity in BALB/c mouse assessed as change in ALT level at 40 mg/kg, po administered for 3 days; format: organism-based; settings: in vivo, 72 h, time 3 day
# [21] = Toxicity in BALB/c mouse assessed as change in body weight at 40 mg/kg, po administered for 3 days; format: organism-based; settings: in vivo, 72 h, time 3 day
# [22] = Stability in mouse plasma assessed as half life; format: ADME, cell-free
# [23] = Toxicity in BALB/c mouse assessed as change in Cr level at 40 mg/kg, po administered for 3 days; format: organism-based; settings: in vivo, 72 h, time 3 day
# [24] = Toxicity in BALB/c mouse assessed as animal death at 40 mg/kg, po administered once daily for 3 days; format: organism-based; settings: in vivo, 72 h, time 3 day
Structure (SMILES),Activity [1] [%],inhibition [2] [%],IC50 [5] [nM],EC50 (Influenza A virus [7]) [nM],also measured
O=C(O)[C@@H]1Cc2ccccc2CN1Nc1nc(-c2c[nH]c3ncccc23)ncc1F,73,27,–,–,–
O=C(O)[C@@H]1CC2(CC2)CN1Nc1nc(-c2c[nH]c3ncc(F)cc23)ncc1F,21,79,3070,1450,CC50 at 96 h [3]: 87000 nM; selectivity ratio [4]: 60; Kd [6]: 145 nM
O=C(O)[C@H]1C2CCC(CC2)[C@@H]1Nc1nc(-c2c[nH]c3ncc(F)cc23)ncc1F [PIMODIVIR],0.1,99.9,4,1,log(activity) (Influenza A virus [8]): 0.964; log(activity) (Influenza A virus [9]): 6
CC(C)(C)N(CC(=O)O)Nc1nc(-c2c[nH]c3ncc(F)cc23)ncc1F,0.3,99.7,60,30,Activity (Influenza A virus [10]): Active; Ratio [11]: 3850; Activity [12]: Non-Toxic; Activity [13]: Non-Toxic; IC50 [14]: > 10000 nM; Activity [15]: Non-Toxic; CC50 at 96 h [3]: > 100000 nM; selectivity ratio [4]: > 2920; log(activity) (Influenza A virus [8]): 4.988; Activity [16]: Non-Toxic; Kd [6]: 46.2 nM; Activity (Influenza A virus [17]): Active; log(activity) (Influenza A virus [9]): 2; Activity (Influenza A virus [18]): 85.7%; Activity (Influenza A virus [19]): Active; Activity [20]: Non-Toxic; Activity [21]: Non-Toxic; half-life [22]: 12 h; Activity [23]: Non-Toxic; Activity [24]: Non-Toxic
O=C(O)[C@@H]1CCCCN1Nc1nc(-c2c[nH]c3ncccc23)ncc1F,67,33,–,–,–
CC(C)(C)N(CC(=O)O)Nc1nc(-c2c[nH]c3ncccc23)ncc1F,0.2,99.8,290,170,CC50 at 96 h [3]: > 100000 nM; selectivity ratio [4]: > 597; Kd [6]: 468 nM
O=C(O)[C@@H]1C[C@@H]2CCCC[C@@H]2N1Nc1nc(-c2c[nH]c3ncc(F)cc23)ncc1F,0.1,99.9,360,50,CC50 at 96 h [3]: 54100 nM; selectivity ratio [4]: 1024; Kd [6]: 202 nM
CC(C1CC1)N(CC(=O)O)Nc1nc(-c2c[nH]c3ncc(F)cc23)ncc1F (stereo not given),41,59,–,–,–
O=C(O)[C@@H]1CCCN1Nc1nc(-c2c[nH]c3ncc(F)cc23)ncc1F,62,38,–,–,–
O=C(O)CN(Cc1ccccc1)Nc1nc(-c2c[nH]c3ncc(F)cc23)ncc1F,> 100,0,–,–,–
O=C(O)CN(Nc1nc(-c2c[nH]c3ncccc23)ncc1F)C1CCCC1,58,42,–,–,–
CC(C)(C)CN(CC(=O)O)Nc1nc(-c2c[nH]c3ncccc23)ncc1F,65,35,–,–,–
O=C(O)[C@@H]1Cc2ccccc2CN1Nc1nc(-c2c[nH]c3ncc(F)cc23)ncc1F,62,38,–,–,–
CCOC(=O)C1=C[C@@H](OC(CC)CC)[C@H](NC(C)=O)[C@@H](N)C1 [OSELTAMIVIR],–,–,–,40,–
O=C(O)CN(Nc1nc(-c2c[nH]c3ncccc23)ncc1F)C1CCC1,> 100,0,–,–,–
O=C(O)CN(Nc1nc(-c2c[nH]c3ncc(F)cc23)ncc1F)C1CCCC1,46,54,–,–,–
O=C(O)[C@@H]1CCCCN1Nc1nc(-c2c[nH]c3ncc(F)cc23)ncc1F,12,88,1450,1150,CC50 at 96 h [3]: > 100000 nM; selectivity ratio [4]: > 87
O=C(O)CN(Nc1nc(-c2c[nH]c3ncccc23)ncc1F)C1CCCCC1,34,65,–,–,–
